Several values for one entry are separate records, joined by “and”; a condition that tells them apart may be missing. Equal values may be shown once. Where a name gives a salt, the structure may show the parent alone. Read-outs that look alike come from different tables or passages of the source.

The target in one series is PDE4D3 (Homo sapiens, UniProt Q08499). The series can be described thus: PDE4D3 enzyme inhibition (IMAP). In kind it is biochemical. Here is the method: Compound's evaluation on PDE4D3, PDE4A4, PDE4B2 and PDE4C2 enzyme assays were performed by Scottish Biomedical (Glasgow, Scotland, UK) using recombinant human PDE enzymes expressed in a baculoviral system. The preliminary screening assays were performed by the IMAP technology (Molecular Devices), which is based on the high affinity binding of phosphate by immobilized metal coordination complexes on nanoparticles. The binding reagent complexes with phosphate groups on nucleotide monophosphate generated from cyclic nucleotides (cAMP) through phosphodiesterases. With fluorescence polarization detection, binding causes a change in the rate of the molecular motion of the phosphate bearing molecule and results in an increase in the fluorescence polarization value observed for the fluorescent label attached to the substrate. […] All compounds were solved in DMSO at 10^−2 M concentration and then diluted with water to the final suitable concentrations. All synthesized compounds were tested preliminary on PDE4D3 at 10^−5 M concentration, in duplicate. Results are expressed as a percent inhibition of control activity (see table 1).
PDE4D3, sequence (Q08499 1-673 isoform Q08499-2): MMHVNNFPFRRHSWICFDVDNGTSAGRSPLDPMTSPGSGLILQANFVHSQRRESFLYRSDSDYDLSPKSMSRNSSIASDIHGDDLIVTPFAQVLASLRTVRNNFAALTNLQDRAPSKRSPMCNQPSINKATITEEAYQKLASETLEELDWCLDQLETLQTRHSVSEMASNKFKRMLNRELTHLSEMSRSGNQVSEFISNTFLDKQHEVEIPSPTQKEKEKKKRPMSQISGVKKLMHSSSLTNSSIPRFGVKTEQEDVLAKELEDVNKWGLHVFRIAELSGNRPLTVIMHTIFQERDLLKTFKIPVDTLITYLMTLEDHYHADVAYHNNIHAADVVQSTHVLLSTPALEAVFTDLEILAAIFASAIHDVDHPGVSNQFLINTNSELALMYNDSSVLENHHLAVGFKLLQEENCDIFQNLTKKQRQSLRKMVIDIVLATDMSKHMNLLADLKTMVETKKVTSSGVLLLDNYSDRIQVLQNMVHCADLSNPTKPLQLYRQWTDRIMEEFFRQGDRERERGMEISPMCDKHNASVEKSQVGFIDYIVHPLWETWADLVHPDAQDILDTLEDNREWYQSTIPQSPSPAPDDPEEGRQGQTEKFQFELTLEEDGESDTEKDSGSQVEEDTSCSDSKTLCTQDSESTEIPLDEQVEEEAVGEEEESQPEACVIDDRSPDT
IC50 values are reported at μM concentration in table 1. […] The results are reported (as percent of inhibition at 10 μM concentration) in Table 1.

On to `COc1ccc(-c2cc(C(=O)CN3CCOCC3)on2)cc1OC1CCCC1` (as salt: hydrochloride) [XVa, 1-{3-[3-(Cyclopentyloxy)-4-methoxyphenyl]isoxazol-5-yl}-2-morpholin-4-ylethanone hydrochloride], for which the melting point (in general, the temperature, or range, at which the solid turns liquid) is 175 °C (dec.).

On to `COc1ccc(-c2cc(C(=O)CN3CC(C)OC(C)C3)on2)cc1OC1CCCC1` (centres unmarked) (as salt: hydrochloride) [XVb, 1-{3-[3-(Cyclopentyloxy)-4-methoxyphenyl]isoxazol-5-yl}-2-(2,6-dimethylmorpholin-4-yl)ethanone hydrochloride], for which the melting point is 200 °C (dec.).

Turning to `COc1ccc(-c2ccn(CC(O)CN3CCOCC3)n2)cc1OC1CCCC1` (centres unmarked) (as salt: salt) [XVIIIa, 1-{3-[3-(Cyclopentyloxy)-4-methoxyphenyl]-1H-pyrazol-1-yl}-3-morpholin-4-ylpropan-2-ol dihydrocloride], the melting point lay in the range of 162 to 163 °C.

In the case of `COc1ccc(-c2ccn(CC(O)CN3CC(C)OC(C)C3)n2)cc1OC1CCCC1` (centres unmarked) (as salt: salt) [XVIIIb, 1-{3-[3-(Cyclopentyloxy)-4-methoxyphenyl]-1H-pyrazol-1-yl}-3-(2,6-dimethylmorpholin-4-yl)propan-2-ol dihydrocloride], the melting point lay within 188 to 189 °C.

`COc1ccc(C2=NOC(C(=O)N3CCOCC3)C2)cc1OC1CCCC1` (centres unmarked) [XIIIa, 4-({3-[3-(Cyclopentyloxy)-4-methoxyphenyl]-4,5-dihydroisoxazol-5-yl}carbonyl)morpholine]: the melting point was 115 to 116 °C. In addition, the “PDE4D3 % inib at 10 μM” value on PDE4D3 (10 μM, in duplicate) was 21%.

Take `COc1ccc(C2=NOC(C(=O)N3CC(C)OC(C)C3)C2)cc1OC1CCCC1` (centres unmarked) [XIIIb, 4-({3-[3-(Cyclopentyloxy)-4-methoxyphenyl]-4,5-dihydroisoxazol-5-yl}carbonyl)-2,6-dimethylmorpholine]: the melting point lay within 127 to 129 °C. Further, the “PDE4D3 % inib at 10 μM” value at PDE4D3 (10 μM, in duplicate) is reported as 29%.

The compound `COc1ccc(C2=NOC(C(=O)N3CCC(O)CC3)C2)cc1OC1CCCC1` (centres unmarked) [XIIIc, 1-({3-[3-(Cyclopentyloxy)-4-methoxyphenyl]4,5-dihydroisoxazol-5-yl}carbonyl)piperidin-4-ol] showed a melting point of 134 °C. The “PDE4D3 % inib at 10 μM” value on PDE4D3 (10 μM, in duplicate) is 26%.

In turn, `COc1ccc(C2=NOC(C(=O)N3CCCC3)C2)cc1OC1CCCC1` (centres unmarked) [XIIId, 3-[3-(Cyclopentyloxy)-4-methoxyphenyl]-5-(pyrrolidin-1-ylcarbonyl)-4,5-dihydroisoxazole] showed a melting point of 126 to 127 °C. Moreover, the “PDE4D3 % inib at 10 μM” value on PDE4D3 (10 μM, in duplicate) turned out to be 15%.

In turn, `COc1ccc(C2=NOC(C(=O)N3CCCCC3)C2)cc1OC1CCCC1` (centres unmarked) [XIIIe, 1-({3-[3-(Cyclopentyloxy)-4-methoxyphenyl]-4,5-dihydroisoxazol-5-yl}carbonyl)piperidine] showed a melting point of 130 °C. For the same compound, the “PDE4D3 % inib at 10 μM” value on PDE4D3 (10 μM, in duplicate) is reported as 8%.

In the case of `COc1ccc(C2=NOC(C(=O)N(CCO)CCO)C2)cc1OC1CCCC1` (centres unmarked) [XIIIf, 3-[3-(Cyclopentyloxy)-4-methoxyphenyl]-N,N-bis(2-hydroxyethyl)-4,5-dihydroisoxazole-5-carboxamide], the “PDE4D3 % inib at 10 μM” value on PDE4D3 (10 μM, in duplicate) worked out at 33%.

For the compound `COc1ccc(C2=NOC(CC(=O)N3CCOCC3)C2)cc1OC1CCCC1` (centres unmarked) [XIVa, 4-({3-[3-(Cyclopentyloxy)-4-methoxyphenyl]-4,5-dihydroisoxazol-5-yl}acetyl)morpholine], the melting point is 144 °C and 144 to 145 °C. Also, the “PDE4D3 % inib at 10 μM” value on PDE4D3 (10 μM, in duplicate) was 29%.

In turn, `COc1ccc(C2=NOC(CC(=O)N3CCC(O)CC3)C2)cc1OC1CCCC1` (centres unmarked) [XIVc, 1-({3-[3-(Cyclopentyloxy)-4-methoxyphenyl]-4,5-dihydroisoxazol-5-yl}acetyl)piperidin-4-ol] registered a melting point of 134 °C. In addition, the “PDE4D3 % inib at 10 μM” value at PDE4D3 (10 μM, in duplicate) is 30%.

Compound `COc1ccc(C2=NOC(CC(=O)N3CCCCC3)C2)cc1OC1CCCC1` (centres unmarked) [XIVe, 1-({3-[3-(Cyclopentyloxy)-4-methoxyphenyl]-4,5-dihydroisoxazol-5-yl}acetyl)piperidine] returned a melting point of 104 to 106 °C. Further, the “PDE4D3 % inib at 10 μM” value at PDE4D3 (10 μM, in duplicate) is 40%.

In turn, `COc1ccc(C2=NOC(CC(=O)N3CCNCC3)C2)cc1OC1CCCC1` (centres unmarked) [XIVf, 1-({3-[3-(Cyclopentyloxy)-4-methoxyphenyl]-4,5-dihydroisoxazol-5-yl}acetyl)piperazine] registered a melting point of 108 to 111 °C. In addition, the “PDE4D3 % inib at 10 μM” value at PDE4D3 (10 μM, in duplicate) is 23%.

For the compound `COc1ccc(-c2ccn(CC(O)CN3CCC(O)CC3)n2)cc1OC1CCCC1` (centres unmarked) [XVIIIc, 1-(3-{3-[3-(cyclopentyloxy)-4-methoxyphenyl]4H-pyrazol-1-yl}-2-hydroxypropyl)piperidin-4-ol], the “PDE4D3 % inib at 10 μM” value on PDE4D3 (10 μM, in duplicate) is given as 2%.

Compound `COc1ccc(-c2cc(C(=O)N3CCOCC3)on2)cc1OC1CCCC1` [XVIIa, 4-({3-[3-(Cyclopentyloxy)-4-methoxyphenyl]isoxazol-5-yl}carbonyl)morpholine] returned a melting point of 100 to 101 °C. Further, at PDE4D3 (10 μM, in duplicate), the “PDE4D3 % inib at 10 μM” value turned out to be 41%.

For `COc1ccc(-c2cc(C(=O)N3CC(C)OC(C)C3)on2)cc1OC1CCCC1` (centres unmarked) [XVIIb, 4-({3-[3-(Cyclopentyloxy)-4-methoxyphenyl]isoxazol-5-yl}carbonyl)-2,6-dimethylmorpholine], the melting point was 152 to 153 °C. Moreover, the “PDE4D3 % inib at 10 μM” value on PDE4D3 (10 μM, in duplicate) amounted to 35%.

Take `COc1ccc(-c2cc(C(O)CN3CCOCC3)on2)cc1OC1CCCC1` (centres unmarked) [XVIa, 1-{3-[3-(Cyclopentyloxy)-4-methoxyphenyl]isoxazol-5-yl}-2-morpholin-4-ylethanol]: the melting point is 136 to 137 °C. In addition, on PDE4D3 (10 μM, in duplicate), the “PDE4D3 % inib at 10 μM” value was 38%.

As to `COc1ccc(-c2cc(C(=O)CN3CCOCC3)on2)cc1OC1CCCC1` [XVa, 1-{3-[3-(Cyclopentyloxy)-4-methoxyphenyl]isoxazol-5-yl}-2-morpholin-4-ylethanone hydrochloride], the “PDE4D3 % inib at 10 μM” value on PDE4D3 (10 μM, in duplicate) is on record as 39%.

Consider `COc1ccc(-c2cc(C(=O)CN3CC(C)OC(C)C3)on2)cc1OC1CCCC1` (centres unmarked) [XVb, 1-{3-[3-(Cyclopentyloxy)-4-methoxyphenyl]isoxazol-5-yl}-2-(2,6-dimethylmorpholin-4-yl)ethanone hydrochloride], for which the “PDE4D3 % inib at 10 μM” value at PDE4D3 (10 μM, in duplicate) came to 13%.

Compound `COc1ccc(-c2ccn(CC(=O)N3CCOCC3)c2)cc1OC1CCCC1` [XXIIIa, 2-{3-[3-(cyclopentyloxy)-4-methoxy-phenyl]-pyrrol-1-yl}-1-morpholin-4-yl-ethanone] displayed a melting point of 169 to 171 °C. Moreover, the “PDE4D3 % inib at 10 μM” value on PDE4D3 (10 μM, in duplicate) worked out at 7%.

In turn, `COc1ccc(-c2ccn(CC(=O)N3CC(C)OC(C)C3)c2)cc1OC1CCCC1` (centres unmarked) [XXIIIb, 2-{3-[3-(Cyclopentyloxy)-4-methoxy-phenyl]-pyrrol-1-yl}-1-(2,6-dimethyl-morpholin-4-yl)-ethanone] came in with a melting point of 108 to 112 °C. Further, the “PDE4D3 % inib at 10 μM” value at PDE4D3 (10 μM, in duplicate) was determined as 13%.

In turn, `COc1ccc(-c2ccn(CC(=O)N3CCC(O)CC3)c2)cc1OC1CCCC1` [XXIIIc, 2-{3-[3-(Cyclopentyloxy)-4-methoxy-phenyl]-pyrrol-1-yl}-1-(4-hydroxy-piperidin-1-yl)-ethanone] returned a melting point of 156 to 158 °C. The “PDE4D3 % inib at 10 μM” value on PDE4D3 (10 μM, in duplicate) was determined as 9%.

`OC1CCN(CC(O)Cn2ccc(-c3ccc(OC(F)F)c(OC4CCCC4)c3)n2)CC1` (centres unmarked) [XXIIc, 1-(3-{3-[3-(cyclopentyloxy)-4-difluoromethoxy-phenyl]-pyrazol-1-yl}-2-hydroxy-propyl)-piperidin-4-ol]: the “PDE4D3 % inib at 10 μM” value on PDE4D3 was 73%.

As for `COc1ccc(-c2ccn(CCC(=O)N3CCOCC3)c2)cc1OC1CCCC1` [XXIVa, 3-{3-[3-(cyclopentyloxy)-4-methoxy-phenyl]-pyrrol-1-yl}-1-morpholin-4-yl-propan-1-one], the melting point lay in the range of 110 to 112 °C. Also, on PDE4D3 (10 μM, in duplicate), the “PDE4D3 % inib at 10 μM” value is listed as 44%.

Take `COc1ccc(-c2c[nH]cc2C(=O)N2CCOCC2)cc1OC1CCCC1` [XXVIa, {4-[3-(Cyclopentyloxy)-4-methoxy-phenyl]-1H-pyrrol-3-yl}-morpholin-4-yl-methanone]: the “PDE4D3 % inib at 10 μM” value at PDE4D3 (10 μM, in duplicate) worked out at 13%.

On to `COc1ccc(-c2c[nH]cc2C(=O)N2CC(C)OC(C)C2)cc1OC1CCCC1` (centres unmarked) [XXVIb, {4-[3-(Cyclopentyloxy)-4-methoxy-phenyl]-1H-pyrrol-3-yl}-(2,6-dimethyl-morpholin-4-yl)-methanone], for which the “PDE4D3 % inib at 10 μM” value at PDE4D3 (10 μM, in duplicate) is 6%.

As to `COc1ccc(-c2c[nH]cc2C(=O)N2CCC(O)CC2)cc1OC1CCCC1` [XXVIc, {4-[3-(Cyclopentyloxy)-4-methoxy-phenyl]-1H-pyrrol-3-yl}-(4-hydroxy-piperidin-1-yl)-methanone], the “PDE4D3 % inib at 10 μM” value at PDE4D3 (10 μM, in duplicate) was 15%.

Regarding `COc1ccc(-c2ccn(CC(O)CN3CCOCC3)c2)cc1OC1CCCC1` (centres unmarked) [XXVa, 1-{3-[3-(Cyclopentyloxy)-4-methoxy-phenyl]-pyrrol-1-yl}-3-morpholin-4-yl-propan-2-ol], at PDE4D3 (10 μM, in duplicate), the “PDE4D3 % inib at 10 μM” value came out at 21%.

For the compound `COc1ccc(-c2ccn(CC(O)CN3CC(C)OC(C)C3)c2)cc1OC1CCCC1` (centres unmarked) [XXVb, 1-{3-[3-(Cyclopentyloxy)-4-methoxy-phenyl]-pyrrol-1-yl}-3-(2,6-dimethyl-morpholin-4-yl)-propan-2-ol], the “PDE4D3 % inib at 10 μM” value at PDE4D3 (10 μM, in duplicate) turned out to be 36%.

On to `COc1ccc(-c2ccn(CC(O)CN3CCC(O)CC3)c2)cc1OC1CCCC1` (centres unmarked) [XXVc, 1-(3-{3-[3-(cyclopentyloxy)-4-methoxy-phenyl]-pyrrol-1-yl}-2-hydroxy-propyl)-piperidin-4-ol], for which the “PDE4D3 % inib at 10 μM” value at PDE4D3 (10 μM, in duplicate) came to 5%.

The record behind these values is patent US10017480B2, “Compounds having a selective PDE4D inhibiting activity” (UNIVERSITÂ DEGLI STUDI DI GENOVA, priority 2014, dated 2018).
